Reference: publication PMC8625619, “Carbonic Anhydrase Inhibition with Sulfonamides Incorporating Pyrazole- and Pyridazinecarboxamide Moieties Provides Examples of Isoform-Selective Inhibitors” (Molecules, 2021)

Tests used:
hCA II = hCA II (Homo sapiens, UniProt P00918); assay: stopped flow CO2 hydrase assay, hCA II
Procedure: (§1) An Applied Photophysics stopped-flow instrument was used for assaying the CA-catalyzed CO2 hydration activity [50]. […] However, the background activity from the uncatalyzed reaction was always subtracted when IC50 values were obtained by using the data analysis software for the stopped-flow instrument. […] The uncatalyzed rates were determined in the same manner and subtracted from the total observed rates. Stock solutions of the inhibitor (0.1 mM) were prepared in distilled–deionized water, and dilutions up to 0.01 nM were performed thereafter with the assay buffer. Inhibitor and enzyme solutions were preincubated together for 15 min at room temperature prior to the assay, to allow for the formation of the E–I complex. The inhibition constants were obtained by nonlinear least-squares methods using PRISM 3 and the Cheng–Prusoff equation as reported earlier and represented the mean from at least three different determinations. All CA isoforms were recombinant proteins obtained in-house, as reported earlier [2, 51, 52].

hCA IX = hCA IX (Homo sapiens, UniProt Q16790); assay: stopped flow CO2 hydrase assay, hCA IX
Procedure: as §1

hCA I = hCA I (Homo sapiens, UniProt P00915); assay: stopped flow CO2 hydrase assay, hCA I
Chain of hCA I (P00915 whole entry): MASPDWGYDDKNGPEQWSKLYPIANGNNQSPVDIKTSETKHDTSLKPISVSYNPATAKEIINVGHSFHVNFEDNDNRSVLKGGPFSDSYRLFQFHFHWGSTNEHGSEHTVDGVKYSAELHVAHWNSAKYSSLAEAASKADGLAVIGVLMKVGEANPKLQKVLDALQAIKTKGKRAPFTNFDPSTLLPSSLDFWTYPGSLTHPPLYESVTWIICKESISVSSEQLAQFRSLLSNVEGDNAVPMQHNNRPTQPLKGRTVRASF
Procedure: as §1

hCA XII = hCA XII (Homo sapiens, UniProt O43570); assay: stopped flow CO2 hydrase assay, hCA XII
Chain of hCA XII (O43570 25-354): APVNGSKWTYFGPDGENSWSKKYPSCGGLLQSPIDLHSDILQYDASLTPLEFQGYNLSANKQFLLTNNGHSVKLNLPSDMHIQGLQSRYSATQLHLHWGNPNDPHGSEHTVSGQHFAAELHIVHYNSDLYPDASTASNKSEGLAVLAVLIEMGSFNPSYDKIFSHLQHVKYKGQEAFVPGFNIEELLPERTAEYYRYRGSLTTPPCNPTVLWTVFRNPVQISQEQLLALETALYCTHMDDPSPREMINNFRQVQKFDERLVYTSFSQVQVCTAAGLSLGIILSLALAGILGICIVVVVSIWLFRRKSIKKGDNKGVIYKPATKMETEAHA
Procedure: as §1

Structure (SMILES) | Ki (hCA II) | Ki (hCA IX) | Ki (hCA I) | Ki (hCA XII) | selectivity index on hCA IX compared to hCA I (hCA IX; hCA IX compared to hCA I) | selectivity index on hCA IX compared to hCA II (hCA IX; hCA IX compared to hCA II) | melting point | selectivity index (SI) for hCA II towards hCA I (hCA II; hCA II compared to hCA I) | selectivity index (SI) for hCA II compared to hCA IX (hCA II; hCA II compared to hCA IX)
NS(=O)(=O)c1ccc(NC(=O)c2cc(-c3ccccc3O)[nH]n2)cc1 [4a, N-[4-(Aminosulfonyl)phenyl]-3-(2-hydroxyphenyl)-1H-pyrazole-5-carboxamide] | 867 nM | 450 nM | 3820 nM | 271 nM | – | – | – | – | –
Cc1ccc(O)c(-c2cc(C(=O)Nc3ccc(S(N)(=O)=O)cc3)[nH]n2)c1 [4c, N-[4-(Aminosulfonyl)phenyl]-3-(2-hydroxy-5-methylphenyl)-1H-pyrazole-5-carboxamide] | 16.1 nM | 8.5 nM | 221 nM | 250 nM | 26 | two times | 297 to 299 °C | – | –
Cc1ccc(-c2cc(C(=O)NCCc3ccc(S(N)(=O)=O)cc3)[nH]n2)c(O)c1 [5b, N-{2-[4-(Aminosulfonyl)phenyl]ethyl}-3-(2-hydroxy-4-methylphenyl)-1H-pyrazole-5-carboxamide] | 16.2 nM | 16.1 nM | 345 nM | 330 nM | – | – | 254 to 255 °C | – | –
NS(=O)(=O)c1ccc(CCNC(=O)c2cc(-c3cc(Cl)ccc3O)n[nH]2)cc1 [5f, N-{2-[4-(Aminosulfonyl)phenyl]ethyl}-3-(5-chloro-2-hydroxyphenyl)-1H-pyrazole-5-carboxamide] | 9.1 nM | 79.4 nM | 2150 nM | 77.3 nM | – | – | – | 236 | 8.7
NS(=O)(=O)c1ccc(NC(=O)c2nn(-c3ccc(F)cc3)ccc2=O)cc1 [10b, N-[4-(Aminosulfonyl)phenyl]-1-(4-fluorophenyl)-4-oxo-1,4-dihydropyridazine-3-carboxamide] | 72.5 nM | 131 nM | 481 nM | 94.8 nM | – | – | 313 to 315 °C | – | –
NS(=O)(=O)c1ccc(NC(=O)c2nn(-c3cccc(Cl)c3)ccc2=O)cc1 [10c, N-[4-(Aminosulfonyl)phenyl]-1-(3-chlorophenyl)-4-oxo-1,4-dihydropyridazine-3-carboxamide] | 76.3 nM | 569 nM | 840 nM | 433 nM | – | – | 297 to 299 °C | – | –
COc1cc2c(cc1OC)-c1c(c(C(=O)Nc3ccc(S(N)(=O)=O)cc3)nn1C)C2 [compound 15, N-[4-(Aminosulfonyl)phenyl]-6,7-dimethoxy-1-methyl-1,4-dihydroindeno[1,2-c]pyrazole-3-carboxamide] | – | 6.1 nM | 726 nM | – | – | – | – | – | –

Further molecules by falling Ki (hCA I), results first:

Ki (hCA II) | Ki (hCA IX) | Ki (hCA I) | Ki (hCA XII) | selectivity index on hCA IX compared to hCA I (hCA IX; hCA IX compared to hCA I) | selectivity index on hCA IX compared to hCA II (hCA IX; hCA IX compared to hCA II) | melting point | selectivity index (SI) for hCA II towards hCA I (hCA II; hCA II compared to hCA I) | selectivity index (SI) for hCA II compared to hCA IX (hCA II; hCA II compared to hCA IX) | Structure (SMILES)
25.2 nM | 63.5 nM | 218 nM | 61.3 nM | – | – | 256 to 258 °C | – | – | Cc1cc(O)c(-c2cc(C(=O)NCCc3ccc(S(N)(=O)=O)cc3)[nH]n2)cc1C [5d, N-{2-[4-(Aminosulfonyl)phenyl]ethyl}-3-(2-hydroxy-4,5-dimethylphenyl)-1H-pyrazole-5-carboxamide]
37.2 nM | 34.2 nM | 155 nM | 90.8 nM | – | – | 302 to 304 °C | – | – | NS(=O)(=O)c1ccc(NC(=O)c2cc(-c3cc(Cl)ccc3O)n[nH]2)cc1 [4f, N-[4-(Aminosulfonyl)phenyl]-3-(5-chloro-2-hydroxyphenyl)-1H-pyrazole-5-carboxamide]
309 nM | 78.9 nM | 93.3 nM | 372 nM | – | – | – | – | – | Cc1ccc(-c2cc(C(=O)Nc3ccc(S(N)(=O)=O)cc3)[nH]n2)c(O)c1 [4b, N-[4-(Aminosulfonyl)phenyl]-3-(2-hydroxy-4-methylphenyl)-1H-pyrazole-5-carboxamide]
– | – | 88.1 nM | – | – | – | – | – | – | NS(=O)(=O)c1ccc(CCNC(=O)c2cc(-c3ccccc3O)n[nH]2)cc1 [5a, N-{2-[4-(Aminosulfonyl)phenyl]ethyl}-3-(2-hydroxyphenyl)-1H-pyrazole-5-carboxamide]
16.2 nM | 52.3 nM | 71.4 nM | 191 nM | – | – | – | – | – | Cc1cc(C)c(O)c(-c2cc(C(=O)NCCc3ccc(S(N)(=O)=O)cc3)[nH]n2)c1 [5e, N-{2-[4-(Aminosulfonyl)phenyl]ethyl}-3-(2-hydroxy-3,5-dimethylphenyl)-1H-pyrazole-5-carboxamide]
8 nM | 165 nM | 6.2 nM | 65.7 nM | – | – | 310 to 312 °C | – | – | NS(=O)(=O)c1ccc(NC(=O)c2nn(-c3ccc(Cl)cc3)ccc2=O)cc1 [10d, N-[4-(Aminosulfonyl)phenyl]-1-(4-chlorophenyl)-4-oxo-1,4-dihydropyridazine-3-carboxamide]
